pIC50: −log10 of the molar value.
Target: T1, recombinant HIV reverse transcriptase (HIV RTR) (Human immunodeficiency virus type 1 group M subtype B, UniProt P04585)
T1 construct: recombinant HIV reverse transcriptase
Test: Reverse Transcriptase Assay (incorporation of tritiated deoxyguanosine monophosphate into acid-precipitable cDNA)
Format: biochemical
Details: for inhibition of incorporation of deoxyguanosine monophosphate by HIV reverse transcriptase (in words): at the Km values of dGTP and poly r(C).oligo d(G)12-18; for pIC50: poly r(C).oligo d(G)12-18 template, dGTP at about Km, 37° C., 45 minutes, read-out: calculated IC50
Procedure: The assay measures the incorporation of tritiated deoxyguanosine monophosphate by recombinant HIV reverse transcriptase (HIV RTR) (or other RT) into acid-precipitable cDNA at the Km values of dGTP and poly r(C).oligo d(G)12-18.
Thirty uL of a reaction mixture containing equal volumes of: 500 mM Tris.HCl (pH 8.2), 300 mM MgCl2, 1200 mM KCl, 10 mM DTT, 400 μg/mL poly r(c).oligo d(G) [prepared by dissolving 1.5 mg (25 U) poly r(C).oligo d(G) in 1.5 ml sterile distilled H2 O and diluting to 400 μg/ml], 0.1 μCi/μl [^3 H] dGTP, 160 μM dGTP, was added to 10 μl sterile distilled H2 O, 2.5 μl of potential inhibitor. Ten μL of 3.2 nM purified HIV RTR were added to start the reaction. The mixture was incubated at 37° C. for 45 minutes.
After incubation was complete, the tubes were cooled in ice for 5 minutes. Ice-cold 13% TCA containing 10 mM NaPPi (200 μl) was added and the mixture incubated on ice for 30 minutes. The precipitated cDNA was removed by filtration using presoaked glass filters [TCA, NaPPi ]. The precipitate was then washed with 1N HCl, 10 mM NaPPi. The filter discs were then counted in a Packard scintillation counter.
Under these conditions [dGTP] and poly r(C).oligo d(G)12-18 each are approximately equal to the appropriate Km value. Approximately 5-6,000 cpm of [^3 H] GMP are incorporated into acid-precipitable material. The RT reaction is concentration- and time-dependent.

Cc1[nH]c(=O)c(CCc2nc3ccccc3o2)cc1C(C)O (racemic) [Compound (I), (+/-)-3-[2-(benzoxazol-2-yl)ethyl]-5-(1-hydroxyethyl)-6-methyl-2(1H)-pyridinone]
inhibition of incorporation of deoxyguanosine monophosphate by HIV reverse transcriptase (in words): inhibit this incorporation
pIC50: ~4.73

CCc1cc(CCc2nc3ccccc3o2)c(=O)[nH]c1CO [Compound (II), 3-[2-(benzoxazol-2-yl)ethyl]-5-ethyl-6-hydroxymethyl-2(1H)-pyridinone]
inhibition of incorporation of deoxyguanosine monophosphate by HIV reverse transcriptase (in words): inhibit this incorporation
pIC50: ~7.36
